These are literature values, as cited in patent US10730918B2, “Trap 63” (STRAUMANN HOLDING AG, priority 2013, dated 2020).

The test system of the series is cementoblasts. To be noted: Boabaid et al 2004.

On to “LRAP: leucine-rich amelogenin polypeptide; SEQ ID NO: 4 identical to sequence in Boabaid et al 2004 (MPLPPHPGHPGYINFSYEVLTPLKWYQNMIRHPSLLPDLPLEAWPATDKTKREEVD; sus scrofa domesticus)”, for which the “effect on cell proliferation” value was “not to have any effect” and the “number of cementoblasts in cell culture” value is on record as “decreased”.

B1: full length amelogenin: full length amelogenin, major constituent of the enamel matrix (protein, UniProt Q99217 1-191, looked up)
chain: MGTWILFACLLGAAFAMPLPPHPGHPGYINFSYEVLTPLKWYQSIRPPYPSYGYEPMGGWLHHQIIPVLSQQHPPTHTLQPHHHIPVVPAQQPVIPQQPMMPVPGQHSMTPIQHHQPNLPPPAQQPYQPQPVQPQPHQPMQPQPPVHPMQPLPPQPPLPPMFPMQPLPPMLPDLTLEAWPSTDKTKREEVD
modifications: full-length
notes: full length amelogenin, major constituent of the enamel matrix
For B1, the “effect on cell proliferation” value is “no reported effect”.
